Drawing on US20050197350A1, “Novel quinoline, tetrahydroquinazoline, and pyrimidine derivatives and methods of treatment related to the use thereof” (TAISHO PHARMACEUTICAL CO., LTD., priority 2003, published 2005), this text covers class for 15 compounds.

Structures are written as SMILES.

The first assay concerns MCH receptors. Put plainly: MCH receptor activity class (method not given). Conditions: MCH receptor activity class 1-3 (percent of control at 10^-7 M or IC50).
Turning to `Cc1ccc(NC(=O)NC[C@H]2CC[C@@H](Nc3cc(N(C)C)c4ccccc4n3)CC2)cc1` [compound 2395], the class is 3 (Class 3 The value of percent of control at 10^−7 M was more than 60% or the value of IC50 was more than 200 nM.).

Still in this assay, the particulars now being: MCH receptor; class by percent of control at 10^-7 M or IC50.
As to `CN(C)c1cc(N[C@H]2CC[C@@H](CNC(=O)c3cc(C(F)(F)F)ccc3F)CC2)nc2ccccc12` [compound 192], the class is recorded as 3 (Class 3 The value of percent of control at 10^−7 M was more than 60% or the value of IC50 was more than 200 nM.).

For `CN(C)c1nc(N[C@H]2CC[C@@H](NC(=S)NCC3CCCO3)CC2)nc2c1CCCC2` (relative stereo) [compound 1958], the class is reported as 3 (Class 3 The value of percent of control at 10^−7 M was more than 60% or the value of IC50 was more than 200 nM.). On the same count and under the same terms, under `CN(C)c1cc(N[C@H]2CC[C@@H](NC(=O)COc3cccc(Cl)c3)CC2)nc2ccccc12` [compound 133] stands 1 (Class 1: The value of percent of control at 10^−7 M was less than 40% or the value of IC50 was less than 50 nM.).

Still in this assay, the particulars now being: activity class 1-3: percent of control at 10^-7 M or IC50.
Turning to `CC(C)[C@@H]1CC[C@@H](C)CC1OC(=O)N[C@H]1CC[C@@H](Nc2nc3c(c(N(C)C)n2)CCCC3)CC1` (stereo partly drawn) [compound 1593], the class is reported as 3 (Class 3 The value of percent of control at 10^−7 M was more than 60% or the value of IC50 was more than 200 nM.). The same measure, in the same setting: under `COc1cc(COC(=O)NC[C@H]2CC[C@@H](Nc3nc4c(c(N(C)C)n3)CCCC4)CC2)c([N+](=O)[O-])cc1OC` [compound 1601] stands 3 (Class 3 The value of percent of control at 10^−7 M was more than 60% or the value of IC50 was more than 200 nM.).

Staying with this assay, now noted: class by percent of control at 10^-7 M or IC50.
Take `CN(C)c1ccnc(N[C@H]2CC[C@@H](NC(=O)C(CC(=O)c3ccc(Br)cc3)c3c[nH]c4ccccc34)CC2)n1` (relative stereo) [compound 856]: the class is recorded as 2 (Class 2: The value of percent of control at 10^−7 M was from 40% to 60% or the value of IC′50 was from 50 nM to 200 nM.).

As to `Cc1cccc(CNC[C@H]2CC[C@@H](Nc3nc4c(c(N(C)C)n3)CCCC4)CC2)c1` [compound 1426], the class is 3 (Class 3 The value of percent of control at 10^−7 M was more than 60% or the value of IC50 was more than 200 nM.). Consider `CN(C)c1nc(N[C@H]2CC[C@@H](NC(=O)Nc3ccc(Cl)c(C(F)(F)F)c3)CC2)nc2c1CCCC2` [compound 1887, N-4[4-chloro-3-(trifluoromethyl)phenyl]-N′-(cis-4-{[4-(dimethylamino)-5,6,7,8-tetrahydroquinazolin-2-yl]amino}cyclohexyl)urea], for which the class was 3 (Class 3 The value of percent of control at 10^−7 M was more than 60% or the value of IC50 was more than 200 nM.). Same read-out and setting: under `Cc1cc(NC(=O)N[C@H]2CC[C@@H](Nc3nc4c(c(N(C)C)n3)CCCC4)CC2)ccc1Br` [compound 1885] stands 3 (Class 3 The value of percent of control at 10^−7 M was more than 60% or the value of IC50 was more than 200 nM.). The same measure, in the same setting: under `Cc1cccc(CNC[C@H]2CC[C@@H](Nc3nccc(N(C)C)n3)CC2)c1` [compound 1305] stands 3 (Class 3 The value of percent of control at 10^−7 M was more than 60% or the value of IC50 was more than 200 nM.). For `COc1ccc(NC(=O)N[C@H]2CC[C@@H](Nc3nc4c(c(N(C)C)n3)CCCC4)CC2)cc1OC1CCCC1` [compound 1733], the class is 3 (Class 3 The value of percent of control at 10^−7 M was more than 60% or the value of IC50 was more than 200 nM.). The same measure, in the same setting: under `COC(=O)c1cccc(NC(=S)N[C@H]2CC[C@@H](Nc3cc(N(C)C)c4ccccc4n3)CC2)c1` [compound 2282] stands 3 (Class 3 The value of percent of control at 10^−7 M was more than 60% or the value of IC50 was more than 200 nM.).

Staying with this assay, now noted: class by percent of control at 10^−7 M or IC50.
`Cc1cc(C(=O)N[C@H]2CC[C@@H](Nc3ncc(C)c(N(C)C)n3)CC2)ccc1Cl` [compound 2935]: the class is reported as 1 (Class 1: The value of percent of control at 10^−7 M was less than 40% or the value of IC50 was less than 50 nM.). On the same count and under the same terms, under `Cc1cc(N(C)C)nc(N[C@H]2CC[C@@H](C(=O)NCc3ccccc3F)CC2)n1` [compound 2800] stands 2 (Class 2: The value of percent of control at 10^−7 M was from 40% to 60% or the value of IC′50 was from 50 nM to 200 nM.).
